PubChem BioAssay AID2060620 (Molecular Pharmacology Branch, DTP, NCI, 2025)
Several values for one entry are separate records, joined by “and”; a condition that tells them apart may be missing. Equal values may be shown once. Each block holds one molecule with its values, some of them ahead of it.

Test system: 328373-195-R-J1-PDC complex spheroids, viability % test/control
Experiment: Anticancer human tumor 328373-195-R-J1-PDC patient-derived head and neck squamous carcinoma cell line growth inhibition [CLK]
Conditions: for viability, T/C: stronger effect = lower value
Outline: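 Patient-derived tumor cells grown as complex spheroids with HUVEC endothelial cells and mesenchymal stem cells, treated with drug combinations. Concentrations descend in half-log steps from near clinical Cmax, or from 10 microM if Cmax unknown.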

[1] = curve of first compound, second compound 0.0316 µM
[2] = curve of first compound, second compound 0.1 µM
[3] = curve of first compound, second compound 0.316 µM
[4] = curve of first compound, second compound 1 µM
[5] = curve of first compound, second compound 3.16 µM
[6] = curve of first compound, second compound 10 µM
[7] = second compound 0.0316 µM, first compound 0.0316 µM
[8] = second compound 0.0316 µM, first compound 0.1 µM
[9] = second compound 0.0316 µM, first compound 0.316 µM
[10] = second compound 0.0316 µM, first compound 1 µM
[11] = second compound 0.0316 µM, first compound 3.16 µM
[12] = second compound 0.0316 µM, first compound 10 µM
[13] = second compound 0.1 µM, first compound 0.0316 µM
[14] = second compound 0.1 µM, first compound 0.1 µM
[15] = second compound 0.1 µM, first compound 0.316 µM
[16] = second compound 0.1 µM, first compound 1 µM
[17] = second compound 0.1 µM, first compound 3.16 µM
[18] = second compound 0.1 µM, first compound 10 µM
[19] = second compound 0.316 µM, first compound 0.0316 µM
[20] = second compound 0.316 µM, first compound 0.1 µM
[21] = second compound 0.316 µM, first compound 0.316 µM
[22] = second compound 0.316 µM, first compound 1 µM
[23] = second compound 0.316 µM, first compound 3.16 µM
[24] = second compound 0.316 µM, first compound 10 µM
[25] = second compound 1 µM, first compound 0.0316 µM
[26] = second compound 1 µM, first compound 0.1 µM
[27] = second compound 1 µM, first compound 0.316 µM
[28] = second compound 1 µM, first compound 1 µM
[29] = second compound 1 µM, first compound 3.16 µM
[30] = second compound 1 µM, first compound 10 µM
[31] = second compound 3.16 µM, first compound 0.0316 µM
[32] = second compound 3.16 µM, first compound 0.1 µM
[33] = second compound 3.16 µM, first compound 0.316 µM
[34] = second compound 3.16 µM, first compound 1 µM
[35] = second compound 3.16 µM, first compound 3.16 µM
[36] = second compound 3.16 µM, first compound 10 µM
[37] = second compound 10 µM, first compound 0.0316 µM
[38] = second compound 10 µM, first compound 0.1 µM
[39] = second compound 10 µM, first compound 0.316 µM
[40] = second compound 10 µM, first compound 1 µM
[41] = second compound 10 µM, first compound 3.16 µM
[42] = second compound 10 µM, first compound 10 µM
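Also: spheroids exposed to the agents for 7 days.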

IC50 [1]: < 31.6 nM
IC50 [2]: < 31.6 nM
IC50 [3]: < 31.6 nM
IC50 [4]: < 31.6 nM
IC50 [5]: < 31.6 nM
IC50 [6]: < 31.6 nM
Compound: COc1cccc2c1C(=O)c1c(O)c3c(c(O)c1C2=O)CC(O)(C(=O)CO)CC3OC1CC(N)C(O)C(C)O1 (stereo unspecified) + CNC(=O)c1ccc(Nc2nc(OC3CCCC3)c3c(-c4ccc5nc(C)oc5c4)c[nH]c3n2)c(OC)c1
viability, T/C [7]: 12.6%
viability, T/C [8]: 4.2%
viability, T/C [9]: 0.6%
viability, T/C [10]: 0.17%
viability, T/C [11]: 0.12%
viability, T/C [12]: 3.04%
viability, T/C [13]: 8.2%
viability, T/C [14]: 3.67%
viability, T/C [15]: 0.55%
viability, T/C [16]: 0.13%
viability, T/C [17]: 0.09%
viability, T/C [18]: 4.34%
viability, T/C [19]: 8.9%
viability, T/C [20]: 3.98%
viability, T/C [21]: 0.5%
viability, T/C [22]: 0.07%
viability, T/C [23]: 0.07%
viability, T/C [24]: 1.96%
viability, T/C [25]: 8.51%
viability, T/C [26]: 2.74%
viability, T/C [27]: 1.07%
viability, T/C [28]: 0.06%
viability, T/C [29]: 0.07%
viability, T/C [30]: 4.59%
viability, T/C [31]: 11.5%
viability, T/C [32]: 3.82%
viability, T/C [33]: 0.22%
viability, T/C [34]: 0.06%
viability, T/C [35]: 0.93%
viability, T/C [36]: 2.69%
viability, T/C [37]: 12.1%
viability, T/C [38]: 1.9%
viability, T/C [39]: 0.16%
viability, T/C [40]: 0.1%
viability, T/C [41]: 0.6%
viability, T/C [42]: 2.6%

IC50 (curve of compound): 3420 nM and 3750 nM
Compound: C=C(F)C(=O)N1CCN(c2nc(OCC3CCCN3C)nc3c2CCN(c2cccc4cccc(Cl)c24)C3)CC1CC#N (stereo unspecified)
viability, T/C (compound 0.0316 µM): 94.1% and 94.7%
viability, T/C (compound 0.1 µM): 89.7% and 93.1%
viability, T/C (compound 0.316 µM): 77.7% and 114%
viability, T/C (compound 1 µM): 90.5% and 84.6%
viability, T/C (compound 3.16 µM): 53.7% and 59.2%
viability, T/C (compound 10 µM): 0.17% and 3%

Compound: CC1(C)CCC(CN2CCN(c3ccc(C(=O)NS(=O)(=O)c4ccc(NCC5CCOCC5)c([N+](=O)[O-])c4)c(Oc4cnc5[nH]ccc5c4)c3)CC2)=C(c2ccc(Cl)cc2)C1 + CN1CCN(c2cc(C(=O)Nc3cc4cc(-c5cnn(C)c5)ccc4cn3)ccn2)CC1
IC50 [1]: 6500 nM
IC50 [2]: > 10000 nM
IC50 [3]: < 31.6 nM
IC50 [4]: < 31.6 nM
IC50 [5]: < 31.6 nM
IC50 [6]: < 31.6 nM
viability, T/C [7]: 98.7%
viability, T/C [8]: 99.3%
viability, T/C [9]: 93.3%
viability, T/C [10]: 91.4%
viability, T/C [11]: 83.8%
viability, T/C [12]: 30.1%
viability, T/C [13]: 88.8%
viability, T/C [14]: 83.2%
viability, T/C [15]: 86.4%
viability, T/C [16]: 81.8%
viability, T/C [17]: 78.2%
viability, T/C [18]: 51.5%
viability, T/C [19]: 28%
viability, T/C [20]: 34.3%
viability, T/C [21]: 33.9%
viability, T/C [22]: 31.2%
viability, T/C [23]: 33%
viability, T/C [24]: 40.4%
viability, T/C [25]: 0.22%
viability, T/C [26]: 0.22%
viability, T/C [27]: 0.21%
viability, T/C [28]: 0.14%
viability, T/C [29]: 2.75%
viability, T/C [30]: 3.03%
viability, T/C [31]: 0.09%
viability, T/C [32]: 0.14%
viability, T/C [33]: 1.25%
viability, T/C [34]: 0.12%
viability, T/C [35]: 0.11%
viability, T/C [36]: 0.15%
viability, T/C [37]: 0.11%
viability, T/C [38]: 1.97%
viability, T/C [39]: 3.19%
viability, T/C [40]: 0.16%
viability, T/C [41]: 1.92%
viability, T/C [42]: 2.43%
